{
  "source": "patent US20060216699A1",
  "about": "“Peptides for the detection of HIV-1 group O” (priority 1998, published 2006)",
  "key": {"[1]": {"tested_on": "antibodies to HIV-1 group O", "experiment": "Chemiluminescent ELISA: serially diluted peptide on streptavidin-coated wells, serum ODS007b 1:60, anti-human IgG:HRP, luminol", "format": "binding", "details": "for luminescent units: serum ODS007b 1:60", "method": "To compare the performance of peptide 147 to another genuine group O sequence, the peptide corresponding to the ANT70 sequence was synthesized (peptide 80). Peptides 147 and 80 were dissolved at the same concentration, serially diluted, and bound to streptavidin-coated wells. A 1:60 dilution of serum sample ODS007b (see Table 3) was added to all wells and incubated. After washing, an anti-human IgG:HRP conjugate was added, incubated, and the wells again thoroughly washed. In this case, a chemiluminescent substrate was used, consisting of luminol and a peracid salt. The emitted light was quantified using a luminometer. The results are tabulated in Table 4 and shown graphically in FIG. 2."}, "[2]": {"tested_on": "type B sample", "experiment": "ELISA: biotinylated peptide bound to streptavidin-coated wells, type B sample", "format": "binding, human", "details": "undiluted"}, "[3]": {"tested_on": "anti-HIV-1 group O antibodies present in human serum", "experiment": "ELISA: biotinylated peptide bound to streptavidin-coated wells, HIV-1 group O sera, anti-IgG:HRP, OPD, absorbance at 492 nm", "format": "binding", "method": "Serological recognition of the peptide by HIV-1 group O sera. Peptide 147 was evaluated for its ability to be recognized by anti-HIV-1 group O antibodies present in human serum from infected individuals. All group O samples were confirmed to be positive for HIV-1 group O by reverse transcriptase-polymerase chain reaction (RT-PCR) amplification of viral gp41 sequences using O-specific primers. The identity of the PCR product was further confirmed by DNA sequencing.\nThis technique involves binding of the antigen to a solid phase, bringing the fluid to be tested into contact with the antigen-coated solid phase, washing away any unbound material, and then detecting bound antibodies with an enzyme-labeled second antibody. The presence of the enzyme is detected using a chromogenic or luminogenic substrate.\nTo evaluate biotinylated peptide 147, wells of a microtiter plate were coated with streptavidin at a concentration of 1 μg/ml in 50 mM carbonate buffer, pH 9.6 (200 μl/well). Excess unbound streptavidin was removed by washing several times with phosphate buffered saline (PBS). Biotinylated peptide 147 was dissolved in a minimal volume of pure DMSO and then diluted into PBS to a concentration of 0.5 μg/ml. Two hundred microliters of the peptide solution were added to each well and the peptide allowed to bind to the streptavidin. After removing unbound peptide by washing with PBS, serum samples obtained from HIV-1 group O-infected patients were added to the wells of the plate. After a suitable incubation period, unbound material was removed by washing with PBS. A dilution of an anti-IgG:horse radish peroxidase (HRP) conjugate was added to each well and incubated for 30 minutes at 37° C. Unbound material was removed by extensive washing. Substrate solution containing O-phenylenediamine (OPD) and H2O2 was added to each well and the plate was further incubated, protected from light. After a 30 minute incubation period at room temperature, the reaction was terminated by the addition of 50 μl of 4N H2SO4 and the absorbance of each well was read at 492 nm.\nPeptide 147 was first tested by using undiluted (10 μl) serum samples. The sample measurements are in optical density (OD).\nA panel of serially diluted group O sera was tested with peptide 147 in order to evaluate the sensitivity of an ELISA using this antigen. Streptavidin-coated plates were prepared and loaded with peptide 147 as before, and tested using the dilutional panels. In addition, in order to compare the performance of […] peptide 147 with that of a genuine group O sequence, a second peptide was synthesized (peptide 146) corresponding to the sequence of the DUR variant.\nThese peptides cover precisely the same region of gp41, and were tested in parallel."}},
  "data": [
    {"sequence": "NQQRLNSWGCKGRIICYTSARWH (HIV Consensus) [peptide 147]", "values": [
      {"measurement": "detection of antibodies to HIV-1 group O compared with a naturally occurring isolate (peptide 80)", "setting": "[1]; in words", "result": "comparable to that of a naturally occurring isolate"},
      {"measurement": "luminescent units", "setting": "[1]; peptide 0.020 ug/ml", "result": 0.619, "unit": "luminescent units"},
      {"measurement": "luminescent units", "setting": "[1]; peptide 0.039 ug/ml", "result": 0.504, "unit": "luminescent units"},
      {"measurement": "luminescent units", "setting": "[1]; peptide 0.078 ug/ml", "result": 0.740, "unit": "luminescent units"},
      {"measurement": "luminescent units", "setting": "[1]; peptide 0.156 ug/ml", "result": 1.199, "unit": "luminescent units"},
      {"measurement": "luminescent units", "setting": "[1]; peptide 0.313 ug/ml", "result": 2.090, "unit": "luminescent units"},
      {"measurement": "luminescent units", "setting": "[1]; peptide 0.625 ug/ml", "result": 3.093, "unit": "luminescent units"},
      {"measurement": "luminescent units", "setting": "[1]; peptide 1.250 ug/ml", "result": 2.885, "unit": "luminescent units"},
      {"measurement": "luminescent units", "setting": "[1]; peptide 2.500 ug/ml", "result": 2.374, "unit": "luminescent units"},
      {"measurement": "OD492", "setting": "[2]", "result": 1.926, "unit": "OD"},
      {"measurement": "performance compared with a genuine group O sequence (peptide 146)", "setting": "[3]; a number of the dilutional panels, in words", "result": "equaled or significantly exceeded that of a genuine group O sequence"},
      {"measurement": "binding of antibodies against the group O gp41 immunodominant region", "setting": "[3]; highly diluted samples, in words", "result": "suitable antigen capable of binding antibodies against the group O gp41 immunodominant region"},
      {"measurement": "OD492", "setting": "[3]; negative control (uninfected blood donor), undiluted sample (10 μl)", "result": 0.056, "unit": "OD"},
      {"measurement": "OD492", "setting": "[3]; panel OP1, sample OP1A, dilution of original sample 2", "result": 2.500, "unit": "OD"},
      {"measurement": "OD492", "setting": "[3]; panel OP1, sample OP1B, dilution of original sample 4", "result": 2.298, "unit": "OD"},
      {"measurement": "OD492", "setting": "[3]; panel OP1, sample OP1C, dilution of original sample 8", "result": 2.465, "unit": "OD"},
      {"measurement": "OD492", "setting": "[3]; panel OP1, sample OP1D, dilution of original sample 16", "result": 2.387, "unit": "OD"},
      {"measurement": "OD492", "setting": "[3]; panel OP1, sample OP1E, dilution of original sample 32", "result": 2.013, "unit": "OD"},
      {"measurement": "OD492", "setting": "[3]; panel OP1, sample OP1F, dilution of original sample 64", "result": 1.448, "unit": "OD"},
      {"measurement": "OD492", "setting": "[3]; panel OP1, sample OP1G, dilution of original sample 128", "result": 1.150, "unit": "OD"},
      {"measurement": "OD492", "setting": "[3]; panel OP1, sample OP1H, dilution of original sample 256", "result": 0.927, "unit": "OD"},
      {"measurement": "OD492", "setting": "[3]; panel OP1, sample OP1I, dilution of original sample 512", "result": 0.504, "unit": "OD"},
      {"measurement": "OD492", "setting": "[3]; panel OP1, sample OP1J, dilution of original sample 1024", "result": 0.053, "unit": "OD"},
      {"measurement": "OD492", "setting": "[3]; panel OP2, sample OP2A, dilution of original sample 5", "result": 2.236, "unit": "OD"},
      {"measurement": "OD492", "setting": "[3]; panel OP2, sample OP2B, dilution of original sample 10", "result": 2.320, "unit": "OD"},
      {"measurement": "OD492", "setting": "[3]; panel OP2, sample OP2C, dilution of original sample 20", "result": 2.157, "unit": "OD"},
      {"measurement": "OD492", "setting": "[3]; panel OP2, sample OP2D, dilution of original sample 40", "result": 1.844, "unit": "OD"},
      {"measurement": "OD492", "setting": "[3]; panel OP2, sample OP2E, dilution of original sample 80", "result": 1.061, "unit": "OD"},
      {"measurement": "OD492", "setting": "[3]; panel OP2, sample OP2F, dilution of original sample 160", "result": 0.689, "unit": "OD"},
      {"measurement": "OD492", "setting": "[3]; panel OP2, sample OP2G, dilution of original sample 320", "result": 0.327, "unit": "OD"},
      {"measurement": "OD492", "setting": "[3]; panel OP2, sample OP2H, dilution of original sample 640", "result": 0.184, "unit": "OD"},
      {"measurement": "OD492", "setting": "[3]; panel OP2, sample OP2I, dilution of original sample 1280", "result": 0.179, "unit": "OD"},
      {"measurement": "OD492", "setting": "[3]; panel OP2, sample OP2J, dilution of original sample 2560", "result": 0.090, "unit": "OD"},
      {"measurement": "OD492", "setting": "[3]; panel OP3, sample OP3A, dilution of original sample 300", "result": 0.229, "unit": "OD"},
      {"measurement": "OD492", "setting": "[3]; panel OP3, sample OP3B, dilution of original sample 600", "result": 0.373, "unit": "OD"},
      {"measurement": "OD492", "setting": "[3]; panel OP3, sample OP3C, dilution of original sample 1200", "result": 0.211, "unit": "OD"},
      {"measurement": "OD492", "setting": "[3]; panel OP4, sample OP4A, dilution of original sample 100", "result": 0.774, "unit": "OD"},
      {"measurement": "OD492", "setting": "[3]; panel OP4, sample OP4B, dilution of original sample 200", "result": 0.608, "unit": "OD"},
      {"measurement": "OD492", "setting": "[3]; panel OP4, sample OP4C, dilution of original sample 400", "result": 0.398, "unit": "OD"},
      {"measurement": "OD492", "setting": "[3]; panel OP4, sample OP4D, dilution of original sample 800", "result": 0.277, "unit": "OD"},
      {"measurement": "OD492", "setting": "[3]; panel OP4, sample OP4E, dilution of original sample 1600", "result": 0.040, "unit": "OD"},
      {"measurement": "OD492", "setting": "[3]; panel OP5, sample OP5A, dilution of original sample 100", "result": 1.624, "unit": "OD"},
      {"measurement": "OD492", "setting": "[3]; panel OP5, sample OP5B, dilution of original sample 200", "result": 1.027, "unit": "OD"},
      {"measurement": "OD492", "setting": "[3]; panel OP5, sample OP5C, dilution of original sample 400", "result": 0.225, "unit": "OD"},
      {"measurement": "OD492", "setting": "[3]; panel OP5, sample OP5D, dilution of original sample 800", "result": 0.302, "unit": "OD"},
      {"measurement": "OD492", "setting": "[3]; panel OP6, sample OP6A, dilution of original sample 50", "result": 0.667, "unit": "OD"},
      {"measurement": "OD492", "setting": "[3]; panel OP7-2, sample OP7-2A, dilution of original sample 100", "result": 2.081, "unit": "OD"},
      {"measurement": "OD492", "setting": "[3]; panel OP7-2, sample OP7-2B, dilution of original sample 200", "result": 1.817, "unit": "OD"},
      {"measurement": "OD492", "setting": "[3]; panel OP7-2, sample OP7-2C, dilution of original sample 400", "result": 1.346, "unit": "OD"},
      {"measurement": "OD492", "setting": "[3]; panel OP7-2, sample OP7-2D, dilution of original sample 800", "result": 0.847, "unit": "OD"},
      {"measurement": "OD492", "setting": "[3]; sample ODS001, undiluted", "result": 2.500, "unit": "OD"},
      {"measurement": "OD492", "setting": "[3]; sample ODS002, undiluted", "result": 2.500, "unit": "OD"},
      {"measurement": "OD492", "setting": "[3]; sample ODS003, undiluted", "result": 2.500, "unit": "OD"},
      {"measurement": "OD492", "setting": "[3]; sample ODS004, undiluted", "result": 2.500, "unit": "OD"},
      {"measurement": "OD492", "setting": "[3]; sample ODS006, undiluted", "result": 2.500, "unit": "OD"},
      {"measurement": "OD492", "setting": "[3]; sample ODS007a, undiluted", "result": 2.500, "unit": "OD"},
      {"measurement": "OD492", "setting": "[3]; sample ODS007b, undiluted", "result": 2.500, "unit": "OD"},
      {"measurement": "OD492", "setting": "[3]; sample ODS009, undiluted", "result": 2.500, "unit": "OD"},
      {"measurement": "recognition by antibodies produced in response to an HIV-1 group O infection", "setting": "[3]; undiluted specimens, in words", "result": "capable of recognizing peptide 147"}
    ]}
  ]
}
